The values below come from PubChem BioAssay (NCI).

Some test systems named below: CAKI-1 renal; HCT-116 colon; IGROV1 ovarian; KM12 colon; MALME-3M melanoma; NCI-H460 lung; OVCAR-4 ovarian; OVCAR-5 ovarian; SF-268 CNS; UO-31 renal; RXF 393 renal; UACC-62 melanoma.
What all share (assay): NCI tumour cell line growth inhibition, 48 h

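How tested: cells in 96-well plates exposed to compound for 48 hours at five concentrations. At the TGI there is no net growth.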 Where only a bound is given, the exact number is not on record here.

In the case of `CCOc1ccc2[nH]c3c(C)c4ccncc4c(C)c3c2c1`, the TGI in the test on CAKI-1 renal stood at 3.06 µM; in the test with HCT-116 colon, 1.78 µM; with IGROV1 ovarian, 2.42 µM; with KM12 colon, 2.22 µM; with MALME-3M melanoma it was 2.83 µM; in the test on NCI-H460 lung, 1.68 µM. For the same compound, the TGI with OVCAR-4 ovarian amounted to 2.72 µM; in the test on OVCAR-5 ovarian, 2.93 µM; in the test on SF-268 CNS, 2.71 µM; in the test with UO-31 renal it was 13.9 µM.

With `COc1ccc(C(=O)O[C@H]2[C@@H]3C=CO[C@@H](OC4OC(CO)C(O)C(O)C4O)[C@@H]3[C@@]3(CO)O[C@@H]23)cc1O` (some centres undefined), the TGI with CAKI-1 renal, in the test with IGROV1 ovarian, in the test with KM12 colon, in the test on MALME-3M melanoma, in the test with NCI-H460 lung and with OVCAR-4 ovarian was above 100 µM in each case. Further, the TGI in the test with OVCAR-5 ovarian, in the test with RXF 393 renal, in the test with SF-268 CNS, in the test on UACC-62 melanoma and with UO-31 renal was above 100 µM throughout.

As to `NC(=S)/N=C(/c1nc2ccc(Cl)cc2[nH]c1=O)C(O)c1ccccc1Cl` (centres undefined), the TGI with IGROV1 ovarian, in the test on KM12 colon, with MALME-3M melanoma, in the test with NCI-H460 lung, in the test on OVCAR-4 ovarian and in the test with OVCAR-5 ovarian was above 100 µM each time. In addition, the TGI in the test on RXF 393 renal, in the test with SF-268 CNS, in the test with UACC-62 melanoma and in the test with UO-31 renal was above 100 µM in each case.

On to `Cc1c2ccncc2cc2c1[nH]c1ccccc12`, for which the TGI with CAKI-1 renal is 10.5 µM; in the test on HCT-116 colon, 7.12 µM; with IGROV1 ovarian, 65.2 µM; in the test on KM12 colon it was 23.9 µM; in the test on MALME-3M melanoma it was 20.5 µM; with NCI-H460 lung it was 5.77 µM. Besides, the TGI with OVCAR-4 ovarian was found to be 33.2 µM; in the test on OVCAR-5 ovarian it was 13.6 µM; with RXF 393 renal, 7.35 µM; with SF-268 CNS, 32.3 µM; in the test on UACC-62 melanoma, 20.7 µM; in the test on UO-31 renal it was 9.89 µM.

Regarding `NC1=C(NC(=O)Cc2ccccc2F)C(=O)c2ccccc2C1=O`, the TGI was above 100 µM in the test with CAKI-1 renal; above 100 µM in the test with HCT-116 colon; above 100 µM in the test with IGROV1 ovarian; above 100 µM with KM12 colon; 50.9 µM in the test on MALME-3M melanoma; above 100 µM in the test with NCI-H460 lung. Besides, the TGI in the test on OVCAR-4 ovarian was above 100 µM; with RXF 393 renal, 56.5 µM; in the test with SF-268 CNS it was above 100 µM; with UACC-62 melanoma it was above 100 µM; in the test with UO-31 renal, above 100 µM.

As to `CCC1(N=[N+]=[N-])C(=O)c2ccccc2N(C)C1=O` (centres undefined), the TGI with CAKI-1 renal, in the test on HCT-116 colon, in the test on IGROV1 ovarian, in the test on KM12 colon, in the test with MALME-3M melanoma and in the test on NCI-H460 lung was above 100 µM in each case. Moreover, the TGI with OVCAR-4 ovarian, in the test with OVCAR-5 ovarian, in the test on SF-268 CNS, with UACC-62 melanoma and in the test with UO-31 renal was above 100 µM each time.

Regarding `[N-]=[N+]=NC(c1cn(C2CC(O)C(CO)O2)c(=O)[nH]c1=O)C(Br)Br` (centres undefined), the TGI in the test on CAKI-1 renal, in the test on HCT-116 colon, in the test on IGROV1 ovarian, in the test with KM12 colon, in the test on MALME-3M melanoma and in the test on NCI-H460 lung was above 100 µM in each case. In addition, the TGI with OVCAR-5 ovarian, in the test with RXF 393 renal, with UACC-62 melanoma and in the test on UO-31 renal was above 100 µM throughout.

In the case of `Brc1ccc(C[P+]2(c3ccccc3)CCCCC2)cc1`, the TGI in the test on HCT-116 colon, in the test with IGROV1 ovarian, in the test with KM12 colon, with MALME-3M melanoma, in the test on NCI-H460 lung and with OVCAR-5 ovarian was above 100 µM in each case. The TGI in the test on RXF 393 renal, with UACC-62 melanoma and in the test with UO-31 renal was above 100 µM each time.

Consider `COc1ccc(C(c2c(O)c3ccccc3n(-c3ccccc3)c2=O)c2c(O)c3ccccc3n(-c3ccccc3)c2=O)cc1`, for which the TGI with CAKI-1 renal, in the test on HCT-116 colon, in the test on KM12 colon, in the test on MALME-3M melanoma, in the test with OVCAR-4 ovarian and with OVCAR-5 ovarian was above 100 µM throughout. Moreover, the TGI in the test with RXF 393 renal, with SF-268 CNS and with UO-31 renal was above 100 µM throughout.

Regarding `C/C=C(/I)CBr`, the TGI in the test on CAKI-1 renal was 2.85 µM; in the test on HCT-116 colon it was 27.9 µM; in the test with IGROV1 ovarian, 33.7 µM; with MALME-3M melanoma it was 31.4 µM; in the test on NCI-H460 lung, 37.4 µM; in the test on OVCAR-4 ovarian, 49.3 µM. Also, the TGI in the test with RXF 393 renal worked out at 31.2 µM; with SF-268 CNS, 74.5 µM; in the test with UACC-62 melanoma, 29.5 µM; in the test on UO-31 renal, 34 µM.

`COc1ccc(N=NC(C(=O)c2ccccc2)C(=O)c2ccccc2)cc1`: the TGI is above 100 µM in the test with CAKI-1 renal; 38.8 µM in the test with HCT-116 colon; above 100 µM in the test with IGROV1 ovarian; above 100 µM with KM12 colon; 97 µM in the test with MALME-3M melanoma; 68.4 µM in the test on NCI-H460 lung. Moreover, the TGI in the test on OVCAR-4 ovarian is above 100 µM; in the test on OVCAR-5 ovarian it was 87.1 µM; in the test with SF-268 CNS, above 100 µM; in the test on UACC-62 melanoma, 56.1 µM; in the test on UO-31 renal it was 51.7 µM.
